Assay results from patent US20120015331A1, “SCAFFOLD” (priority 2009, published 2012).
Where a name gives a salt, the structure may show the parent alone.

Columns and labels:
L. Casei = test: Bacterial killing assay (PDT, Example 5); assay type: cell-based; conditions: 22 μM erythrosine in BHI broth
Procedure: L. Casei is a known constituent of gut microflora. A growth curve for L. Casei both in the presence and without erythrosine was prepared using broth turbidity measured by spectrophotometry using a Shimadzu UV-1601 UV-Visible spectrophotometer. L. Casei were grown in Brain Heart Infusion (BHI) liquid broth at 37° C. to stationary phase overnight. A fresh volume of BHI broth containing erythrosine released from the scaffold at a concentration known to be effective for PDT was inoculated using the stationary phase culture and incubated at 37° C. in a shaking incubator. Bacteria were also incubated in BHI with non scaffold derived erythrosine, BHI containing an equal concentration of scaffold breakdown products from a non erythrosine containing scaffold or blank scaffold and BHI alone with no additives. Since bacteria are most sensitive to PDT during log phase this was chosen as the time most appropriate for irradiation therefore irradiation took place 2 hours 30 minutes after inoculation. […] Following irradiation bacterial viability was assessed by spreading broth samples on Columbia blood agar plates and following 48 hour incubation counting the number of visible colonies. The number of colony forming units (cfu)/ml of broth were then calculated. […]

L casei = L casei cultures in BHI with additives, foil-wrapped or exposed to light (Example 16); assay type: cell-based
Procedure: Pieces of blank PGA scaffold and PGA scaffold containing 5 w/w % erythrosine B were incubated overnight in BHI and the scaffold was removed before adding L Casei culture, the erythrosine B concentration was measured and adjusted to 22 μM. For each of the ‘media’ shown in Table 1, two tubes of culture, one tube wrapped in foil, were exposed to light for 30 minutes. After exposure to light, serial dilutions were made of the cultures in BHI which were then grown on Columbian blood agar plates for 48 hours. The number of colonies on the plates was then counted and those having between 30 and 300 colonies were used to calculate the cfu/ml for the cultures. […] PDT (erythrosine plus light) causes 6 logs of cell kill, whereas in the presence of glycolic acid released from the scaffold (or added to a similar concentration out of a bottle), the amount of cell killing doubles or more.

**Q.** Which log10 kill (L. Casei; 10 minutes irradiation) does the source give for O=C1OC2(c3ccccc31)c1cc(I)c(O)c(I)c1Oc1c2cc(I)c(O)c1I [Erythrosin B, disodium salt of 2′,4,′5,′7′-tetraiodofluorescein] here?
**A.** 6.1 log10

**Q.** What about the log10 kill (L. Casei; 30 minute irradiation) of the same compound?
**A.** 6.4 log10

**Q.** What about the “cell kill by PDT (erythrosine plus light)” value (L casei; 22 μM, light for 30 minutes) of the same compound?
**A.** 6 logs

**Q.** What about the “colony forming units, culture tubes wrapped in foil and exposed to light (F)” value (L casei; BHI, 30 minutes, foil-wrapped, erythrosin 22 μM where present) of the same compound?
**A.** 2.75 × 10^8 cfu/ml

**Q.** And the “colony forming units, culture tubes exposed to light (L)” value (L casei; BHI, exposed to light for 30 minutes, erythrosin 22 μM where present)?
**A.** 2.1 × 10^2 cfu/ml
